Read-outs that look alike come from different tables or passages of the source.
Key:
[1] = parameters: method as in Johnson and Wood, personal communication; details: ref Johnson and Wood, personal communication; cited from earlier work
[2] = test system: patients with advanced solid tumours; details: human, in vivo
Description: (§1) Topoisomerases are essential nuclear enzymes that alter the topology of DNA during DNA metabolism by cleavage of DNA strands, strand passage and religation (Wang, 1985). Two major topoisomerases, types I and H, have been identified in all mammalian cells, and induce single- and double-strand breaks respectively. […] They have different sites of binding DNA and play a different role in the cell cycle. Received 15 November 1996 Revised 19 February 1997 Accepted 10April 1997 Correspondence to: VMM Herben, Slotervaart Hospital, Department of Pharmacy and Pharmacology, Louwesweg 6, 1066 EC Amsterdam, The Netherlands Topotecan (Hycamtin), a semisynthetic water-soluble derivative of camptothecin, was the first topoisomerase I-targeting drug to undergo clinical testing since the discontinuation of the clinical development of sodium camptothecin in the early 1970s. […] In view of topotecan's unique mechanism of action and important anti-tumour effects as single agent, recent studies have focused on combination therapies with other effective anti- cancer agents. The combination of topoisomerase I inhibitors with topoiso- merase II poisons is in theory an attractive strategy. As resistance to inhibition of one class of topoisomerase enzymes is accompa- nied with an elevated sensitivity to the other class of topoiso- merase inhibitors in vitro (Tan et al, 1989; Sugimoto et al, 1990), a combined administration regimen of inhibitors of both topoiso- merases could effectively kill tumour cells. […] The recommended dose for this schedule is 1.5 mg m-2 day-1 (Rowinsky et al, 1991; Verweij et al, 1993). […] Other eligibility criteria included a Zubrod-ECOG-WHO performance status < 2, anticipated life expectancy of 2 3 months and age 2 18 years. Previous anti-cancer chemotherapy had to be discontinued for at least 4 weeks before entry into the study or 6 weeks in cases of pretreatment with a nitrosourea or mitomycin C. All patients had acceptable bone marrow function white blood cell (WBC) ? […]

[3] = Pharmacokinetics of N-desmethyltopotecan after 30-min infusion of topotecan; format: in vivo, human
Description: as §1

[4] = ref Clark et al, 1989; cited from earlier work
[5] = Plasma pharmacokinetics of etoposide after oral administration (HPLC); details: human
Description: Topoisomerases are essential nuclear enzymes that alter the topology of DNA during DNA metabolism by cleavage of DNA strands, strand passage and religation (Wang, 1985). Two major topoisomerases, types I and H, have been identified in all mammalian cells, and induce single- and double-strand breaks respectively. […] They have different sites of binding DNA and play a different role in the cell cycle. Received 15 November 1996 Revised 19 February 1997 Accepted 10April 1997 Correspondence to: VMM Herben, Slotervaart Hospital, Department of Pharmacy and Pharmacology, Louwesweg 6, 1066 EC Amsterdam, The Netherlands Topotecan (Hycamtin), a semisynthetic water-soluble derivative of camptothecin, was the first topoisomerase I-targeting drug to undergo clinical testing since the discontinuation of the clinical development of sodium camptothecin in the early 1970s. […] In view of topotecan's unique mechanism of action and important anti-tumour effects as single agent, recent studies have focused on combination therapies with other effective anti- cancer agents. The combination of topoisomerase I inhibitors with topoiso- merase II poisons is in theory an attractive strategy. As resistance to inhibition of one class of topoisomerase enzymes is accompa- nied with an elevated sensitivity to the other class of topoiso- merase inhibitors in vitro (Tan et al, 1989; Sugimoto et al, 1990), a combined administration regimen of inhibitors of both topoiso- merases could effectively kill tumour cells. […] The recommended dose for this schedule is 1.5 mg m-2 day-1 (Rowinsky et al, 1991; Verweij et al, 1993). […] Other eligibility criteria included a Zubrod-ECOG-WHO performance status < 2, anticipated life expectancy of 2 3 months and age 2 18 years. Previous anti-cancer chemotherapy had to be discontinued for at least 4 weeks before entry into the study or 6 weeks in cases of pretreatment with a nitrosourea or mitomycin C. All patients had acceptable bone marrow function white blood cell (WBC) ? […] The study protocol was approved by the Medical Ethics Committee of the hospital, and all patients gave written informed consent. Treatment plan and study design Topotecan (SmithKline Beecham Pharmaceuticals, King of Prussia, PA, USA) was supplied by the National Cancer Institute as a lyophilized light yellow powder in vials containing 5 mg of topotecan (as the free base), 60 mg of mannitol, 25 mg of tartaric acid and 2 M hydrochloric acid and/or 0.05 M sodium hydroxide for pH adjustment to 3.0. The content of each vial was reconsti- tuted with 2 ml of sterile water for injection, USP, yielding a 2.5 mg ml-1 solution of topotecan. The appropriate dosage of the drug was diluted in 50 or 100 ml of 0.9% sodium chloride and was administered intravenously over 30 min by a syringe pump. […]

[6] = test system: patients with advanced solid tumours; details: both, human, in vivo
Description: 0.3 h. […] 2.7 1 h-1 m-2 with a steady-state volume of distribution of 36.7 ? 6.2 I m-2. […] 1.0 h after infusion. […] 0.54 and 1.23 ? […] 1.2 and 2.3 ? 1.0 h after ingestion of 20 and 40 mg respectively. […] Other eligibility criteria included a Zubrod-ECOG-WHO performance status < 2, anticipated life expectancy of 2 3 months and age 2 18 years. Previous anti-cancer chemotherapy had to be discontinued for at least 4 weeks before entry into the study or 6 weeks in cases of pretreatment with a nitrosourea or mitomycin C. All patients had acceptable bone marrow function white blood cell (WBC) ? 4 x 10^9 1-1 and platelets 2 100 x 109 11; normal hepatic function, serum bilirubin < 1.5 mg dl-' (25 pmol 1-1) and other liver function tests < twice the normal upper limit or < five times when related to liver metastases, prothrombin or thrombotest within normal limits; normal renal function, serum creatinine < 1.4 mg dl-1 (120 gmol 1-1). The study protocol was approved by the Medical Ethics Committee of the hospital, and all patients gave written informed consent. Treatment plan and study design Topotecan (SmithKline Beecham Pharmaceuticals, King of Prussia, PA, USA) was supplied by the National Cancer Institute as a lyophilized light yellow powder in vials containing 5 mg of topotecan (as the free base), 60 mg of mannitol, 25 mg of tartaric acid and 2 M hydrochloric acid and/or 0.05 M sodium hydroxide for pH adjustment to 3.0. The content of each vial was reconsti- tuted with 2 ml of sterile water for injection, USP, yielding a 2.5 mg ml-1 solution of topotecan. The appropriate dosage of the drug was diluted in 50 or 100 ml of 0.9% sodium chloride and was administered intravenously over 30 min by a syringe pump.

[7] = clinical; details: human, in vivo
Description: Topoisomerases are essential nuclear enzymes that alter the topology of DNA during DNA metabolism by cleavage of DNA strands, strand passage and religation (Wang, 1985). Two major topoisomerases, types I and H, have been identified in all mammalian cells, and induce single- and double-strand breaks respectively. […] They have different sites of binding DNA and play a different role in the cell cycle. Received 15 November 1996 Revised 19 February 1997 Accepted 10April 1997 Correspondence to: VMM Herben, Slotervaart Hospital, Department of Pharmacy and Pharmacology, Louwesweg 6, 1066 EC Amsterdam, The Netherlands Topotecan (Hycamtin), a semisynthetic water-soluble derivative of camptothecin, was the first topoisomerase I-targeting drug to undergo clinical testing since the discontinuation of the clinical development of sodium camptothecin in the early 1970s. […] In view of topotecan's unique mechanism of action and important anti-tumour effects as single agent, recent studies have focused on combination therapies with other effective anti- cancer agents. The combination of topoisomerase I inhibitors with topoiso- merase II poisons is in theory an attractive strategy. As resistance to inhibition of one class of topoisomerase enzymes is accompa- nied with an elevated sensitivity to the other class of topoiso- merase inhibitors in vitro (Tan et al, 1989; Sugimoto et al, 1990), a combined administration regimen of inhibitors of both topoiso- merases could effectively kill tumour cells. […] The recommended dose for this schedule is 1.5 mg m-2 day-1 (Rowinsky et al, 1991; Verweij et al, 1993). […] Other eligibility criteria included a Zubrod-ECOG-WHO performance status < 2, anticipated life expectancy of 2 3 months and age 2 18 years. Previous anti-cancer chemotherapy had to be discontinued for at least 4 weeks before entry into the study or 6 weeks in cases of pretreatment with a nitrosourea or mitomycin C. All patients had acceptable bone marrow function white blood cell (WBC) ? […] The study protocol was approved by the Medical Ethics Committee of the hospital, and all patients gave written informed consent. Treatment plan and study design Topotecan (SmithKline Beecham Pharmaceuticals, King of Prussia, PA, USA) was supplied by the National Cancer Institute as a lyophilized light yellow powder in vials containing 5 mg of topotecan (as the free base), 60 mg of mannitol, 25 mg of tartaric acid and 2 M hydrochloric acid and/or 0.05 M sodium hydroxide for pH adjustment to 3.0. The content of each vial was reconsti- tuted with 2 ml of sterile water for injection, USP, yielding a 2.5 mg ml-1 solution of topotecan. The appropriate dosage of the drug was diluted in 50 or 100 ml of 0.9% sodium chloride and was administered intravenously over 30 min by a syringe pump. […] The regimen was intended to be repeated every 4 weeks. This could be changed during the study to either shorter or longer intervals depending on bone marrow recovery. Doses were escalated in an alternating way according to the scheme in Table 1. […] Treatment cycles were to be repeated at 3-week intervals. Patients were scheduled to receive at least two courses.

[8] = test system: patients; details: cited from earlier work

SMILES: CC[C@@]1(O)C(=O)OCc2c1cc1n(c2=O)Cc2cc3c(CNC)c(O)ccc3nc2-1 [N-desmethyltopotecan]
- anti-tumour activity compared with the parent compound [1]: slightly less anti-tumour activity
- relation of AUC(t) to myelosuppression [2]: not related
- additional excretion in the urine as the metabolite ([3]; 24 to 48 hours after the fifth daily infusion, four patients): 0.4%
- metabolite-to-topotecan ratio of maximal plasma levels ([3]; all dose levels): 0.5%
- metabolite-to-topotecan AUC(t) ratio ([3]; all dose levels, up to 6 h post-infusion): 0.012

SMILES: COc1cc([C@@H]2c3cc4c(cc3[C@@H](O[C@@H]3O[C@@H]5CO[C@@H](C)O[C@H]5[C@H](O)[C@H]3O)[C@H]3COC(=O)[C@H]23)OCO4)cc(OC)c1O [etoposide]
- correlation of pharmacokinetics (AUC, Cmax) or total dose with haematological toxicity [2]: did not yield any significant relationship
- peak plasma concentrations associated with significant toxicity [4]: above 17 μmol l-1
- Cmax ([5]; 20 mg): 750 ± 540 nM
- Tmax ([5]; 20 mg): 2.4 ± 1.2 h
- Cmax ([5]; 40 mg): 1230 ± 570 nM
- Tmax ([5]; 40 mg): 2.3 ± 1 h
- recommended dose for phase II clinical trials [6]: 40 mg bid

SMILES: CC[C@@]1(O)C(=O)OCc2c1cc1n(c2=O)Cc2cc3c(CN(C)C)c(O)ccc3nc2-1 [topotecan]
- half-life ([7]; both, iv): 2.1 ± 0.3 h
- alpha half-life [7]: 3.8 ? 3.2 min
- CL ([7]; 0.5 mg): 14.9 ? 1.8 l h-1 m-2
- Vss ([7]; 0.5 mg): 34.0 ? 2.6 l m-2
- t1/2 ([7]; 0.5 mg): 1.9 ? 0.1 h
- CL ([7]; 1 mg): 13.4?2.6 l h-1 m-2
- Vss ([7]; 1 mg): 36.4?5.2 l m-2
- t1/2 ([7]; 1 mg): 2.2?0.3 h
- CL ([7]; 1.25 mg): 15.6 ? 4.0 l h-1 m-2
- Vss ([7]; 1.25 mg): 33.7 ? 6.7 l m-2
- percentage of the administered dose recovered in the urine ([7]; 24 h): 41 ? 10%
- percentage of the administered dose recovered in the urine, range ([7]; 24 h): 25-7 1
- terminal (beta) half-life ([7]; iv): 2.1 ? 0.3 h
- recommended dose, single agent ([8]; 30-min daily times five infusion every 3 weeks, ref Rowinsky et al, 1991, Verweij et al, 1993): 1.5 mg m-2 day-1
- AUC50 (AUC associated with 50% decrease in ANC) ([8]; preceding single-agent phase I trial, Figure 2, ref Van Warmerdam et al, 1995): 79.2 h/nmol/L
- recommended dose, single agent ([8]; previously treated patients, ref Saltz et al (1993)): 1.25 mg m-2 daily
- recommended dose, single agent ([8]; previously untreated patients, ref Saltz et al (1993)): 1.5 mg m-2 daily
- courses resulting in grades III or IV leucocytopenia and neutropenia ([8]; single agent 1.5 mg m-2 day-1, ref Rowinsky et al, 1991, Verweij et al, 1993): approximately 75%
- dose associated with a 50% decrease in ANC (D50) ([2]; both): 0.6 mg m-2 day-1
- dose that could be given in combination, % of the single-agent dosage [6]: 67-83%
- recommended dose for phase II clinical trials [6]: 1.0 mg m-2

— article PMC2228184 (British Journal of Cancer, 1997)
